{"source": "ChEMBL document CHEMBL5550133", "about": "“Update on the development of TGR5 agonists for human diseases” (Eur J Med Chem, 2024)", "key": {"Cytochrome P450 2C9": {"target": "Cytochrome P450 2C9 (Homo sapiens, UniProt P11712)", "sequence (P11712 whole entry)": "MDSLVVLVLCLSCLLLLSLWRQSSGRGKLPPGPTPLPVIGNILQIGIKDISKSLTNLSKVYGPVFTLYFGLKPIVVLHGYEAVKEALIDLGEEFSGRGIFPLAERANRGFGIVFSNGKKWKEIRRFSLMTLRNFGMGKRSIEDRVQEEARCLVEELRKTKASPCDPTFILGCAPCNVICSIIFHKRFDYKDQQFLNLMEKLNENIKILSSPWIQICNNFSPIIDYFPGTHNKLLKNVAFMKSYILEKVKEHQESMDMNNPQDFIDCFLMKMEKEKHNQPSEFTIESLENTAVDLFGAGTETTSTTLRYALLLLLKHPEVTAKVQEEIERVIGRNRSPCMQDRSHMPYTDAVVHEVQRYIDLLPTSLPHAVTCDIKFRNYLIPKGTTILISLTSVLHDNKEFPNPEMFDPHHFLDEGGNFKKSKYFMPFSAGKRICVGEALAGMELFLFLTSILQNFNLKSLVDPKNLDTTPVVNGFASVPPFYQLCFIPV", "test": "Inhibition of CYP2C9 (unknown origin)", "type": "ADME"}, "[1]": {"test": "Clearance in human liver microsomes", "type": "ADME, Microsome", "details": "read-out: CLH"}, "Cytochrome P450 3A4": {"target": "Cytochrome P450 3A4 (Homo sapiens, UniProt P08684)", "sequence (P08684 whole entry)": "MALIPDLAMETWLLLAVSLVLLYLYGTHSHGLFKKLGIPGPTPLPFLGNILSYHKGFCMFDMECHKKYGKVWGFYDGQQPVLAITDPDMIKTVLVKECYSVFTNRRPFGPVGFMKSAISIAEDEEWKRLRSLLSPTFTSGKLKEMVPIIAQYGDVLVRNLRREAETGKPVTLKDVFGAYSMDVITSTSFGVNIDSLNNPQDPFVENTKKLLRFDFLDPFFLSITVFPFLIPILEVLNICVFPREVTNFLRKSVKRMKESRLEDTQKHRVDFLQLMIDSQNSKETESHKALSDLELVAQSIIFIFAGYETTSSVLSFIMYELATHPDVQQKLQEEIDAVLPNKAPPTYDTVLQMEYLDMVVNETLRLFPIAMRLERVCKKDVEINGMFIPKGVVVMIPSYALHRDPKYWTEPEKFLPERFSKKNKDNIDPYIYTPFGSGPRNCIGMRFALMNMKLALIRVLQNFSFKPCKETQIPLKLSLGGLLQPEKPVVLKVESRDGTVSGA", "test": "Inhibition of CYP3A4 (unknown origin)", "type": "ADME"}, "[2]": {"target": "T1, G-protein coupled bile acid receptor 1 (Homo sapiens, UniProt Q8TDU6)", "T1 sequence (Q8TDU6 whole entry)": "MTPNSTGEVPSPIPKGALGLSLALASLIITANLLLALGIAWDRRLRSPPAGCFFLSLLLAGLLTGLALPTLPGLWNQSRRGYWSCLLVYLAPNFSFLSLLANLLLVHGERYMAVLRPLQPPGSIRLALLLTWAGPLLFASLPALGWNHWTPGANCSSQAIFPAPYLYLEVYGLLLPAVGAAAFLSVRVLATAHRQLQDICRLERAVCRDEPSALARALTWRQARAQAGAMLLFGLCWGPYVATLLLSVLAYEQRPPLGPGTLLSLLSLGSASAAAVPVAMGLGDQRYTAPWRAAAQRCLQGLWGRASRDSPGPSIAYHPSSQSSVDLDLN", "test": "Agonist activity at TGR5 (unknown origin) expressed in HEK293 cells", "type": "functional, cell-based"}, "[3]": {"target": "T2, G-protein coupled bile acid receptor 1 (Mus musculus, UniProt Q80SS6)", "T2 sequence (Q80SS6 whole entry)": "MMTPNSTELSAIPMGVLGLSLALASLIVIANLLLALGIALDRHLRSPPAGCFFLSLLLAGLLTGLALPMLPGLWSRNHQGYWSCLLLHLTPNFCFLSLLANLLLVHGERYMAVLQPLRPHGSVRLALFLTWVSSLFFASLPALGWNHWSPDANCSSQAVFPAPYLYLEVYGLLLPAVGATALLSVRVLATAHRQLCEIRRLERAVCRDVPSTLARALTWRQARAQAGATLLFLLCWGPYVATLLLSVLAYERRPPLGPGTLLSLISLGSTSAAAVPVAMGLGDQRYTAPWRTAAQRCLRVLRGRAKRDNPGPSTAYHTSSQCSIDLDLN", "test": "Agonist activity at mouse TGR5 receptor", "type": "functional"}, "[4]": {"target": "T1, G-protein coupled bile acid receptor 1", "test": "Agonist activity at TGR5 (unknown origin) in CHO-K1 cells", "type": "functional, cell-based"}, "[5]": {"target": "T1, G-protein coupled bile acid receptor 1", "test": "Agonist activity at TGR5 receptor in human NCI-H716 cells assessed as activation of intracellular cAMP production incubated for 1 hr by TR-FRET assay", "type": "functional, cell-based"}, "[6]": {"target": "CYP450 (isoform not specified) (Homo sapiens, UniProt P04798+P05177+P05181+P08684+P10632+P10635+P11509+P11712+P13584+P20813+P20815+P20853+P24462+P24903+P33260+P33261+P51589+P78329+P98187+Q02928+Q08477+Q16678+Q16696+Q5TCH4+Q6VVX0+Q7Z449+Q8TAV3+Q96SQ9+Q9HB55)", "test": "Inhibition of CYP450 (unknown origin)", "type": "ADME, protein assay"}, "[7]": {"target": "T1, G-protein coupled bile acid receptor 1", "test": "Agonist activity at human TGR5", "type": "functional"}, "[8]": {"target": "T2, G-protein coupled bile acid receptor 1", "test": "Agonist activity at mouse TGR5 receptor expressed in HEK293 cells assessed as activation of intracellular cAMP production incubated for 2 hrs by luciferase reporter gene assay", "type": "functional, cell-based"}, "[9]": {"test": "Oral bioavailability in mouse at 2 mg/kg", "type": "ADME, organism-based", "details": "in vivo"}, "[10]": {"target": "T1, G-protein coupled bile acid receptor 1", "test": "Agonist activity at TGR5 in HEK293 cells", "type": "functional, cell-based"}, "[11]": {"test": "Aqueous solubility of compound", "type": "physicochemical", "details": "aqueous (not further specified)"}, "[12]": {"target": "T3, G-protein coupled bile acid receptor 1 (Homo sapiens) (UniProt Q8TDU6)", "T3 sequence (whole entry)": "T1 sequence (Q8TDU6 whole entry)", "test": "Agonist activity at TGR5 in human NCI-H716 cells assessed as increase in GLP-1 secretion at 5 uM measured for 60 mins by SEAP reporter gene based assay relative to control", "type": "functional, cell-based", "details": "filed as agonist"}, "[13]": {"target": "T1, G-protein coupled bile acid receptor 1", "test": "Agonist activity at TGR5 (unknown origin)", "type": "functional"}}, "data": [{"smiles": "O=C(c1cccnc1Oc1cc(Cl)ccc1Cl)N1CCN(C2COC2)c2ccccc21", "values": [{"measurement": "IC50", "setting": "Cytochrome P450 2C9", "result": 8200, "unit": "nM"}, {"measurement": "CLint scaled", "setting": "[1]", "result": 578, "unit": "mL/min/kg"}, {"measurement": "IC50", "setting": "Cytochrome P450 3A4", "result": 300, "unit": "nM"}, {"measurement": "EC50", "setting": "[2]", "result": 10, "unit": "nM"}, {"measurement": "EC50", "setting": "[3]", "result": 520, "unit": "nM"}]}, {"smiles": "O=C(Nc1nnn[nH]1)c1cc(Cl)c(Oc2ncccc2C(=O)N2CCN(C3CC3)c3ccccc32)cc1Cl", "values": [{"measurement": "IC50", "setting": "Cytochrome P450 2C9", "result": "> 10000", "unit": "nM"}, {"measurement": "CLint scaled", "setting": "[1]", "result": 56, "unit": "mL/min/kg"}, {"measurement": "IC50", "setting": "Cytochrome P450 3A4", "result": "> 10000", "unit": "nM"}, {"measurement": "EC50", "setting": "[2]", "result": 70, "unit": "nM"}]}, {"smiles": "CC1(C)CC[C@]2(C(=O)O)CC[C@]3(C)C(=CC[C@@H]4[C@@]5(C)C[C@@H](O)[C@H](O)C(C)(C)[C@@H]5CC[C@]43C)[C@@H]2C1", "note": "[MASLINIC ACID]", "values": [{"measurement": "EC50", "setting": "[4]", "result": 3700, "unit": "nM"}]}, {"smiles": "Fc1cccc(F)c1-c1ccncc1CN1C(c2ccco2)=NO[C@@H]1c1cc(C(F)(F)F)cc(C(F)(F)F)c1Cl", "values": [{"measurement": "EC50", "setting": "[3]", "result": 249, "unit": "nM"}]}, {"smiles": "COc1ccc(S(=O)(=O)N2CCCN(S(=O)(=O)c3ccc(OC)c(OC)c3)CC2)cc1OC", "note": "[SB-756050]", "values": [{"measurement": "EC50", "setting": "[5]", "result": 1300, "unit": "nM"}]}, {"smiles": "COc1cc(-n2c(N(C)c3ccc(OC)c(OC)c3)cnc2SCc2c(F)cc(OCCCS(=O)(=O)O)cc2F)ccc1F", "values": [{"measurement": "EC50", "setting": "[3]", "result": 0.5, "unit": "nM"}]}, {"smiles": "CCc1onc(-c2ccccc2)c1C(=O)N(C)c1ccc(Cl)cc1", "values": [{"measurement": "IC50", "setting": "[6]", "result": 251, "unit": "nM"}]}, {"smiles": "CN(Cc1cnccc1-c1ccccc1F)C(C#N)c1cc(C(F)(F)F)cc(C(F)(F)F)c1", "note": "(stereo unspecified)", "values": [{"measurement": "EC50", "setting": "[7]", "result": 35, "unit": "nM"}, {"measurement": "EC50", "setting": "[3]", "result": 150, "unit": "nM"}]}, {"smiles": "CN(CC[N+](C)(C)C)C(=O)CCc1cc(Cl)c(Oc2ccsc2C(=O)N2CCSc3ccccc32)cc1Cl", "values": [{"measurement": "EC50", "setting": "[8]", "result": 74, "unit": "nM"}]}, {"smiles": "C[C@H]1[C@H](C)CC[C@]2(C(=O)O)CC[C@]3(C)C(=CC[C@@H]4[C@@]5(C)C[C@@H](O)[C@H](O)C(C)(C)[C@@H]5CC[C@]43C)[C@H]12", "note": "[COROSOLIC ACID]", "values": [{"measurement": "EC50", "setting": "[4]", "result": 500, "unit": "nM"}]}, {"smiles": "Cc1cc(/C(C[C@H](c2ccc(C3CCC(C(=O)O)CC3)cc2)c2ccccc2C)=N\\O)ccn1", "note": "(stereo partly specified)", "values": [{"measurement": "bioavailability", "setting": "[9]", "result": 100, "unit": "%"}]}, {"smiles": "CC(C)[C@@H](CO)NC(=O)CC[C@@H](C)[C@H]1CC[C@H]2[C@@H]3[C@@H](OC=O)C[C@@H]4C[C@H](OC=O)CC[C@]4(C)[C@H]3CC[C@]12C", "values": [{"measurement": "EC50", "setting": "[10]", "result": 110, "unit": "nM"}]}, {"smiles": "O=C(c1cccnc1Oc1cccc(C(F)(F)F)c1)N1CCCc2ccccc21", "values": [{"measurement": "solubility", "setting": "[11]", "result": 1, "unit": "µg/mL"}, {"measurement": "IC50", "setting": "Cytochrome P450 2C9", "result": 2200, "unit": "nM"}, {"measurement": "IC50", "setting": "Cytochrome P450 3A4", "result": 5900, "unit": "nM"}]}, {"smiles": "COC(=O)NCc1cccc([C@H]2O[C@H](CC(=O)NCc3ccccc3F)C(=O)N(CC(C)(C)COC(C)=O)c3ccc(Cl)cc32)c1", "values": [{"measurement": "Activity", "setting": "[12]", "result": 165, "unit": "%"}]}, {"smiles": "CC(c1cc(C(F)(F)F)cc(C(F)(F)F)c1)N1CCOc2nccc(-c3ccccc3)c2C1", "note": "(stereo unspecified)", "values": [{"measurement": "Activity", "setting": "[12]", "result": 111, "unit": "%"}]}, {"smiles": "CO[C@H]1C[C@H]2[C@@H]([C@H](OC)C[C@@H]3C[C@H](O)CC[C@@]32C)[C@@H]2CC[C@H]([C@H](C)CCC(=O)N3CCCC3)[C@@]12C", "values": [{"measurement": "EC50", "setting": "[13]", "result": 150, "unit": "nM"}]}]}
